# In patent US9593305B2, “Differentiation of pluripotent stem cells” (Janssen Biotech, Inc., priority 2008, dated 2017):
# Test system: H1 human embryonic stem cells
# Experiment: Analogue screening in combination with only GDF-8, SOX17 (Example 21, Tables 18 and 19)
# Assay type: cell-based
# Parameters: Sox17 Expression: % of positive control / Cell Number: % of positive control: tested at 2.5 µM
# Details: for Cell Number: Average Total Cell Number / Sox17 Expression: Average Total Intensity / Cell Number: % of positive control / Sox17 Expression: % of positive control: compound in combination with GDF8; for Cell Number: Average Total Cell Number / Sox17 Expression: Average Total Intensity: four assay plates; for Cell Number: % of positive control / Sox17 Expression: % of positive control: relative to Activin A/Wnt3a of the same plate; for Sox17 Expression, % of positive control: 2.5 μM compound with 200 ng/ml GDF-8, four days, Table 19 hits
# Summary of the method: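 H1 human ES cells treated four days with 200 ng/ml GDF-8 plus 2.5 μM compound (day 1, 0.5% FCS), GDF-8 alone in 2% FCS on day 3; triplicates. Fixed cells immunostained for SOX17 with Hoechst counterstain, imaged at 15 fields/well; total SOX17 intensity normalized to activin A/Wnt3a positive control.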
Structure (SMILES),Cell Number: Average Total Cell Number,Sox17 Expression: Average Total Intensity,Cell Number: % of positive control,Sox17 Expression: % of positive control,"Sox17 Expression, % of positive control"
"CN1CCC(=O)NCCCNc2cccc(c2)-c2ncnc(n2)Nc2cccc(c2)C1 [Compound 21, 14-Methyl-3,5,7,14,18,22,29-heptaazatetracyclo[21.3.1.1˜2,6˜0.1˜8,12˜]nonacosa-1(27), 2(29), 3,5,8(28), 9,11,23,25-nonaen-17-one]",371,2.36E+06,2.3%,0.7%,–
"O=C1CCN2CCN(CC2)Cc2cc(Cl)cc(c2)Nc2ncnc(n2)-c2cncc(c2)CCCN1 [Compound 34, 5-Chloro-1,8,10,12,16,22,26,32-octaazapentacyclo[24.2.2.1˜3.7˜0.1˜9,13˜0.1˜14.18˜]tritriaconta-3(33), 4,6,9(32), 10,12,14(31), 15,17-nonaen-23-one]",–,–,–,–,68.0 % of positive control
"O=C1CCN2CCN(CC2)Cc2cccc(c2)Nc2ncnc(n2)-c2ccnc(c2)NCCCN1 [Compound 13, 1,8,10,12,17,19,23,27,33-Nonaazapentacyclo[25.2.2.1˜3,7˜0.1˜9.13˜1˜14.18˜]tetratriaconta-3(34), 4,6,9(33), 10,12,14(32), 15,17-nonaen-24-one]",3123,2.44E+07,20.8%,7.1%,–
"O=C1NCCCc2cncc(c2)-c2ncnc(n2)Nc2cc(Cl)cc(c2)CN2CCCC1C2 (stereo not shown) [Compound 37, 10-Chloro-3,5,7,14,20,26,31-heptaazapentacyclo[22.3.1.1˜2,6˜0.1˜8,12˜0.1˜14,18˜]hentriaconta-1(28), 2(31), 3,5,8(30), 9,11,24,26-nonaen-19-one]",4187,3.11E+07,26.4%,8.8%,–
"CCN1CC(=O)NCCCc2cc(ccn2)-c2ncnc(n2)Nc2cc(Cl)cc(c2)C1 [Compound 14, 10-Chloro-14-ethyl-3,5,7,14,17,22,27-heptaazatetracyclo[19.3.1.1˜2,6˜1˜8,12˜]heptacosa-1(25), 2(27), 3,5,8(26), 9,11,21,23-nonaen-16-one]",274,1.56E+05,2.0%,0.1%,–
"C=CCN1CC(=O)NCCCc2cncc(c2)-c2ncnc(n2)Nc2cccc(c2)C1 [Compound 40, 14-Prop-2-en-1-yl-3,5,7,14,17,23,27-heptaazatetracyclo[19.3.1.1˜2.6˜0.1˜8,12˜]heptacosa-1(25), 2(27), 3,5,8(26), 9,11,21,23-nonaen-16-one]",–,–,–,–,52.2 % of positive control
"CCN1CC(=O)NCCCc2cncc(c2)-c2ncnc(n2)Nc2cc(Cl)cc(c2)C1 [Compound 35, 10-Chloro-14-ethyl-3,5,7,14,17,23,27-heptaazatetracyclo[19.3.1.1˜2,6˜0.1˜8,12]Theptacosa-1(25), 2(27), 3,5,8(26), 9,11,21,23-nonaen-16-one]",7746,1.35E+08,48.8%,38.0%,33.7 % of positive control
"CCN1CC(=O)NCCCc2cccc(c2)-c2ncnc(n2)Nc2cccc(c2)C1 [Compound 15, 14-Ethyl-3,5,7,14,17,27-hexaazatetracyclo[19.3.1.1˜2,6˜1-8.12˜]heptacosa-1(25), 2(27), 3,5,8(26), 9,11,21,23-nonaen-16-one]",4383,3.57E+07,28.7%,10.6%,–
"O=C1NCCCc2cncc(c2)-c2ncnc(n2)Nc2cccc(c2)CN2CCC1CC2 [Compound 22, 1,8,10,12,16,22,30-Heptaazapentacyclo[22.2.2.1-3,7˜0.1˜9,13˜1-14,18˜]hentriaconta-3(31), 4,6,9(30), 10,12,14(29), 15,17-nonaen-23-one]",6727,1.06E+08,42.4%,29.8%,27.4 % of positive control
"CN1CCCC(=O)NCCCc2cncc(c2)-c2ncnc(n2)Nc2cccc(c2)C1 [Compound 20, 14-Methyl-3,5,7,14,19,25,29-heptaazatetracyclo[21.3.1.1˜2,6˜0.1˜8,12˜]nonacosa-1(27), 2(29), 3,5,8(28), 9,11,23,25-nonaen-18-one]",2793,6.77E+06,17.6%,1.9%,–
"CN1CCC(=O)NCCCc2cncc(c2)-c2ncnc(n2)Nc2cccc(c2)C1 [Compound 19, 14-Methyl-3,5,7,14,18,24,28-heptaazatetracyclo[20.3.1.1˜2,6˜0.1˜8,12˜]octacosa-1(26), 2(28), 3,5,8(27), 9,11,22,24-nonaen-17-one]",12569,2.40E+08,83.8%,69.5%,69.5 % of positive control
"O=C1CCN2CCN(CC2)Cc2cccc(c2)Nc2ncnc(n2)-c2cncc(c2)CCCN1 [Compound 23, 1,8,10,12,16,22,26,32-Octaazapentacyclo[24.2.2.1-3,7˜0.1˜9,13˜0.1˜14,18˜]tritriaconta-3(33), 4,6,9(32), 10,12,14(31), 15,17-nonaen-23-one]",8758,1.16E+08,58.4%,33.7%,29.8 % of positive control
"O=C1NCCCc2cncc(c2)-c2ncnc(n2)Nc2cccc(c2)CN2CCCC1C2 (stereo not shown) [Compound 17, 3,5,7,14,20,26,31-Heptaazapentacyclo[22.3.1.1-2,6˜1˜8,12˜1˜14,18˜]hentriaconta-1(28), 2(31), 3,5,8(30), 9,11,24,26-nonaen-19-one]",–,–,–,–,23.6 % of positive control
"CCN1CC(=O)NCCCc2cc(ccc2F)-c2ncnc(n2)Nc2cc(Cl)cc(c2)C1 [Compound 25, 10-Chloro-14-ethyl-22-fluoro-3,5,7,14,17,27-hexaazatetracyclo[19.3.1.1˜2,6˜0.1˜8,12˜]heptacosa-1(25), 2(27), 3,5,8(26), 9,11,21,23-nonaen-16-one]",3879,1.76E+07,24.4%,5.0%,–
"O=C1NCCCc2cncc(c2)-c2ncnc(n2)Nc2cccc(c2)CN2CCC[C@@H]12 [Compound 18, (18S)-3,5,7,14,20,26,30-Heptaazapentacyclo[22.3.1.1˜2,6˜1˜8,12˜0.0˜14,18˜]triaconta-1(28), 2(30), 3,5,8(29), 9,11,24,26-nonaen-19-one]",1921,2.94E+07,13.8%,9.5%,–
